Data from patent publication US6498181B1, “Synergistic tumorcidal response induced by histamine” (Maxim Pharmaceuticals, priority 1999, dated 2002).
Where two headings read alike, the source gives them in different places.

What was measured:
[1] = tested on: follicular non-Hodgkins lymphoma; conditions: cited from earlier work
[2] = tested on: human SK-N-SH neuroblastoma xenografts; conditions: histamine 0.5 mg per day tail vein with 10 μCi 131I labeled BW575/9 mAb, versus BW575/9 by itself
[3] = tested on: breast cancer; conditions: histamine s.c. 0.5-1.0 mg per injection 1-2 times per day with humanized 131I labeled p185^HER-2 antibody
Protocol: Accordingly, a pharmaceutically acceptable form of histamine in a sterile carrier solution is injected subcutaneously into the patient for one week (0.5-1.0 mg per injection 1-2 times per day) prior to antibody therapy.
The tumorcidal response is evaluated by determining the level of p185^HER-2 receptor in the patient over time according to conventional methods. (Quak and van Dongen, Eur. Arch. Otorhinolaryngol 251:1-5(1994)).

[4] = tested on: prostate tumor; conditions: histamine s.c. 0.5-2.0 mg per day one week before external beam radiation (60-70 Gy), continued after
Protocol: The tumorcidal response is evaluated by determining the level of PSA antigen in the patient over time according to conventional methods.

[5] = Effect of duration of histamine administration on efficacy and side effects; conditions: administered over less than 1 to 3 minutes; anaphalaxis, heart failure, broncospasm, flushing, headache etc.
[6] = Protocol: Five patients suffering from acute myleogenous leukemia (AML) in remission received treatment with histamine dihydrochloride diluted in sterile sodium chloride. Histamine was administered morning and night at separate subcutaneous injection sites over a period of 21 consecutive days. The histamine was given as subcutaneous injections using 1 ml syringes containing […] of histamine per ml. The histamine treatment was given twice daily (morning and night) at a dosage of 0.4 to 0.7 mg histamine per injection (i.e., a daily total dose of histamine of 0.8 to 1.4 mg per day).
Peripheral blood venous samples were drawn in 10 ml heparinized test tubes before the onset of treatment and weekly thereafter. The samples were drawn at least 8 hours after the last injections of histamine. The concentration of histamine in the whole blood samples was analyzed by the use of a double antibody radioimmunoassay kit obtained from Bionerica, Inc., Newport Beach, Calif. 92663 (catalog number 1051). The manufacturer's instructions provided with the kit, dated June, 1989, were followed. Blood histamine levels were measured at the indicated times.

[7] = tested on: prostate tumor; conditions: histamine s.c. 0.5-2.0 mg per day one week before surgery, blood histamine kept at at least about 0.2 μM after
Protocol: Accordingly, a pharmaceutically acceptable form of histamine in a sterile carrier solution is injected subcutaneously into a patient suffering from prostate cancer for one week (0.5-2.0 mg per day) prior to surgery.
Once the tumor is removed, circulating levels of blood histamine are maintained at at least about 0.2 μM until a complete response is observed. The tumorcidal response is evaluated by determining the level of PSA antigen in the patient over time according to conventional methods.

[8] = tested on: melanoma; conditions: histamine s.c. 0.5-1.0 mg per injection 1-2 times per day with vaccine of killed mixture of three melanomic cell lines
Text: (Quak and van Dongen, Eur. Arch. Otorhinolaryngol 251:1-5(1994)).

Compound | treatment outcome in clinical trials [1] | tumorcidal response [2] | tumorcidal response (p185^HER-2 receptor level over time) [3] | tumorcidal response (PSA antigen level over time) [4] | side effects on rapid administration [5] | persistence of circulating blood histamine levels ([6]; even after histamine administration was discontinued) | circulating blood histamine concentration following histamine administration ([6]; five AML patients in remission, s.c. 0.4 to 0.7 mg per injection twice daily, 21 days, samples at least 8 hours after last injection, less than 0.2 μM at start) | tumorcidal response (PSA antigen level over time) [7] | tumorcidal response (presence of melanoma over time) [8]
^131I labeled anti-B1 (Bexxar) mAb: 131I radiolabeled mAb raised to the CD-20 antigens expressed on the surface of mature B-cells | successful in treating follicular non-Hodgkins lymphoma |  |  |  |  |  |  |  | 
NCCc1c[nH]cn1 [histamine] |  | greater tumorcidal response | synergistic tumorcidal response is observed | synergistic tumorcidal response is observed | more pronounced and serious sides effects | remained elevated for sustained periods of time | at least 0.2 μM | synergistic tumorcidal response is observed | synergistic tumorcidal response is observed
